Assay results reported in patent publication US11752210B2, “Sensitizing composition using electromagnetic waves for thermal therapy of cancers, and cancer therapy using same” (JINIS CO., LTD., priority 2013, dated 2023).
Read-outs that look alike come from different tables or passages of the source.

Tests used:
[1] = target: apotransferrin (Homo sapiens, UniProt P02787); conditions: apotransferrin 200 mg/dL, 37° C. 30 min
Method: In order to evaluate binding capacity of the metal ion to apotransferrin, transferrin binding capacity (Unsaturated Iron-Binding Capacity, UIBC) was measured as follows depending on the concentration of iron ion (ferric iron, FeIII+).
Specifically, in order to prepare iron ion aqueous solutions, 3.6 g of FeCl3 (Sigma Aldrich, USA) was dissolved in 400 ml of distilled water with stirring for 20 min or longer, and then the pH of the resulting solution was adjusted to 9 with continuous stirring while a 5M NaOH solution was added dropwise. When a red brownish precipitate appeared, it was stirred at 90° C. for 2 hr and was then centrifuged at 5,000 rpm for 5 min, thus obtaining a ferric hydroxide precipitate, which was then washed with distilled water and dried. The ferric hydroxide in powder form was dissolved in distilled water, yielding ferric hydroxide solutions having concentrations of […]. Each of the ferric hydroxide solutions at individual concentrations was added with 200 mg/dL of apotransferrin (Sigma Aldrich, USA), and mixed in a vortex for 1 min, followed by allowing the reaction between apotransferrin and iron ion to progress at 37° C. for 30 min.
In order to measure the unsaturated iron-binding capacity (UIBC) of apotransferrin, a Ferrozine colorimetric method was used. As the iron standard, ferrous chloride was prepared at a concentration of […] in hydroxylamine hydrochloride, and the reaction solution of apotransferrin and iron was prepared as a test group. Specifically, 2 ml of 0.5M Tris buffer (pH 8) was aliquoted into all test tubes. The blank test tube was filled with 1 ml of distilled water, the standard test tube was filled with 0.5 ml of distilled water and 0.5 ml of the iron standard, and the experimental test tube was filled with 0.5 ml of the reaction solution of apotransferrin and iron ion and 0.5 ml of the iron standard, followed by mixing in a vortex for 1 min.
A spectrophotometer was zeroed at 560 nm, and the absorbance A1 was measured. Next, a 16.6 mM Ferrozine hydroxylamine hydrochloride solution was placed in an amount of […] in each of the test tubes, followed by mixing in a vortex for 1 min. All the test tubes were cultured at 37° C. for 10 min, and the absorbance A2 at 560 nm was measured. The absorbance A560 at 560 nm was calculated by subtracting the absorbance A1 from the absorbance A2.
The unsaturated iron-binding capacity (UIBC) was calculated as follows. UIBC=[standard conc.]−[standard conc.]×Test A560/Standard A560

[2] = tested on: NCI-H460-luc2 tumor xenograft; assay: Thermal cancer therapy with sensitizer, bioluminescence imaging of tumor size in the last week (Example 1, FIG. 12); format: in vivo, BALB/c athymic nude mice; conditions: i.v. 1 mg/kg metal ion-bound material or 20 mg/kg transferrin, 100 W 10 min, three times per week, four weeks
Method: Next, the potential to treat cancer was evaluated using the metal ion-bound material as the sensitizer upon thermal therapy. A lung cancer cell line NCI-H460-luc2 ([…] Sciences) was cultured, and 5×10^6 cells were subcutaneously injected into 6 to 8-week-old female BALB/c athymic nude mice (Damul Science), and the mice were bred for about 10 days so as to grow tumorous tissue to a size of 100 mm^3 or more, yielding the tumor xenograft animal models for the evaluation of cancer treatment effects. […] After 4 hr, thermal treatment was performed three times per week for a total of four weeks using a radio-frequency hyperthermia system (EHY-2000, Oncothermia) with an energy dose of 100 W for 10 min. As such, a non-treated group and a saline-treated group were set as controls. In order to analyze the size of tumorous tissue in the last week, bioluminescence imaging was performed. For bioluminescence of a luciferase-expressing cancer cell line NCI-H460-luc2, D-luciferin (Xenogen, USA) was intraperitoneally injected at a concentration of 150 mg luciferin/kg/d into the mice, the mice were anesthetized through inhalation using a mixture of isoflurane gas and oxygen, and luminous cancer cells were subjected to overlap photographing using a Xenogen imager (IVIS 200), and analyzed using Igor Pro imaging analysis software.

[3] = tested on: NCI-H460-luc2 tumor xenograft; assay: Thermal cancer therapy with repeated sensitizer dosing, weekly bioluminescence imaging of tumor size over four weeks (Example 1, FIG. 13); format: in vivo, BALB/c athymic nude mice; conditions: i.v. three times per week, 0.1 ml of 0.2 mg/ml (iron dextran, iron sucrose) or 5 mg/ml (transferrin); 100 W 30 min or more; four weeks
Method: After 4 hr, thermal treatment for 30 min or more using a radio-frequency hyperthermia system (EHY-2000, Oncothermia) with an energy dose of 100 W was performed for a total of four weeks, and the size of tumorous tissue was monitored every week. […] In the group to which transferrin was administered, 0.1 ml of the transferrin aqueous solution having a concentration of 5 mg/ml was intravenously injected. As such, the non-treated group and the saline-treated group were used as controls.
In order to analyze the size of tumorous tissue, bioluminescence imaging was regularly performed at an interval of one week, and analysis was performed using Igor Pro imaging analysis software.

[4] = In vivo accumulation of metal ion in normal and tumorous tissue, ICP-MS (Test Example 5); design: species or system BALB/c athymic nude mice; concentration of iron ion (ICP-MS): unit not given here; conditions: 1 mg/kg i.v., after 24 hr
Method: In order to evaluate the accumulation of the administered metal ion in tumorous tissue through in vivo animal testing, tumor xenograft animal models were manufactured as follows. Specifically, a lung cancer cell line NCI-H460-luc2 (Califer Life Sciences) was cultured, and 5×10^6 cells were subcutaneously injected into 6- to 8-week-old female BALB/c athymic nude mice (Damul Science), and the mice were bred for about 10 days so as to grow tumorous tissue to a size of 100 mm^3 or more, yielding the tumor xenograft animal models.
After 24 hr, in order to carry out inductively coupled plasma mass spectrometry (ICP-MS), 1 g of each tissue was ground using a tissue grinder in an ice bath, and 1 ml of the ground solution was dried at −60° C. in a vacuum of 7 μmHg for 24 hr. The dried powder was added with 2 ml of 6N HCl, placed in a sealed glass reactor, and cultured in an incubator at 55° C. After 12 hr or longer, each sample was mixed in a vortex and then centrifuged at 1,000 rpm for 15 min, and the supernatant was dried with nitrogen gas, added with 1 ml of 0.01N HCl, mixed in a vortex, and then centrifuged at 1,000 rpm for 15 min. The supernatant was recovered, and the concentrations of the metal ions in the normal tissue and the tumorous tissue were measured through ICP-MS (Varian 800-MS, Palo Alto, US).

[5] = tested on: NCI-H460-luc2 tumor xenograft; assay: Temperature of normal and tumorous tissue of tumor xenograft mice on application of electromagnetic waves after sensitizer (Example 1, FIGS. 9 to 11); format: in vivo, BALB/c athymic nude mice; conditions: i.v. iron sucrose 1 mg/kg or transferrin 20 mg/kg, 4 hr after administration, 100 W for 3 min
Method: To this end, a lung cancer cell line NCI-H460-luc2 (Califer Life Sciences) was cultured, and 5×10^6 cells were subcutaneously injected into 6 to 8-week-old female BALB/c athymic nude mice (Damul Science), and the mice were bred for about 10 days so as to grow tumorous tissue to a size of 100 mm^3 or more, yielding the tumor xenograft animal models for the evaluation of cancer treatment effects.
As the sensitizing composition for thermal therapy, iron sucrose was prepared in the same manner as in Test Example 1, and 0.1 ml of the iron sucrose aqueous solution having a concentration of 0.2 mg/ml was intravenously injected into the established tumor xenograft mice so as to reach a dose of 1 mg/kg.
As the sensitizing composition for thermal therapy, “iron ion-bound apotransferrin” (transferrin) was prepared in the same manner as in Test Example 3, and 0.1 ml of the transferrin aqueous solution having a concentration of 5 mg/ml was intravenously injected into the established tumor xenograft mice so as to reach a dose of 20 mg/kg.
As the control, saline was administered. 4 hr after administration, electromagnetic waves were applied in an energy dose of 100 W for 3 min using a radio-frequency hyperthermia system (EHY-2000, Oncothermia), and the temperatures of normal tissue and tumorous tissue were measured using a thermal imaging device (E60, Korea Rental, Korea).

Sequence of apotransferrin (P02787 20-698): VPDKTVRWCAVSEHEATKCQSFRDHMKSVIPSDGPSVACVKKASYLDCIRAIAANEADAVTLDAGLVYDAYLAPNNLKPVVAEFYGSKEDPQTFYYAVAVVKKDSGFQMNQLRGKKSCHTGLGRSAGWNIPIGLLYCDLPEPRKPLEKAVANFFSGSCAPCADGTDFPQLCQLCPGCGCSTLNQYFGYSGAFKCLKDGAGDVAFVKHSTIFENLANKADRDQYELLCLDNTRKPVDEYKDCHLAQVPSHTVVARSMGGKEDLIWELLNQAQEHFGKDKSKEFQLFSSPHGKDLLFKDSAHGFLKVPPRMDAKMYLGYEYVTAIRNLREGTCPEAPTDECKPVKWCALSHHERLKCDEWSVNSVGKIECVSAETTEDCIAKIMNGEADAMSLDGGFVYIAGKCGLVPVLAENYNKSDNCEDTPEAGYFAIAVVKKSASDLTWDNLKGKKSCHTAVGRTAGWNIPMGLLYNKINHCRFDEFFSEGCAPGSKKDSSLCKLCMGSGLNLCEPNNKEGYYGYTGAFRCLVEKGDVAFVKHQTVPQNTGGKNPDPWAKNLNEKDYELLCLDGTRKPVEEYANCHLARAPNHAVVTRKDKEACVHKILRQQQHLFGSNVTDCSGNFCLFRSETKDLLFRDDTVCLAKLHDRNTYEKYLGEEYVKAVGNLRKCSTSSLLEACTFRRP

In the case of `[Fe+3].[OH-].[OH-].[OH-]` [iron ion, ferric hydroxide], the UIBC ([1]; Iron conc. 10 μg/dL) is reported as 498 µg/dL, the UIBC ([1]; Iron conc. 50 μg/dL) is reported as 481 µg/dL and the UIBC ([1]; Iron conc. 200 μg/dL) is reported as 332 µg/dL. The UIBC ([1]; Iron conc. 500 μg/dL) was 119 µg/dL.
In the case of Iron dextran [reference compound], the “cancer treatment effects through thermal therapy (size of tumorous tissue, bioluminescence imaging)” value [2] is reported as “excellent” and the “growth of cancer upon thermal treatment using electromagnetic waves (bioluminescence imaging)” value [3] is reported as “significantly reduced”.
For “ferric hydroxide sucrose complex [Iron sucrose]”, the “cancer treatment effects through thermal therapy (size of tumorous tissue, bioluminescence imaging)” value [2] was “excellent”, the “Fold increase of iron ion vs saline” value ([4]; Brain) was 2.05 and the “concentration of iron ion (ICP-MS)” value ([4]; Brain) was 46.2 ± 8.6. For the same molecule, the “Fold increase of iron ion vs saline” value ([4]; Heart) was 3.08, the “concentration of iron ion (ICP-MS)” value ([4]; Heart) was 99.2 ± 2.8 and the “Fold increase of iron ion vs saline” value ([4]; Kidney) was 1.05. For the same molecule, the “concentration of iron ion (ICP-MS)” value ([4]; Kidney) was 59.8 ± 4.1, the “Fold increase of iron ion vs saline” value ([4]; Liver) was 2.26 and the “concentration of iron ion (ICP-MS)” value ([4]; Liver) was 168.2 ± 37.3. The “Fold increase of iron ion vs saline” value ([4]; Muscle) was 0.98, the “concentration of iron ion (ICP-MS)” value ([4]; Muscle) was 28.9 ± 22.1 and the “Fold increase of iron ion vs saline” value ([4]; Stomach) was 2.99. For the same molecule, the “concentration of iron ion (ICP-MS)” value ([4]; Stomach) was 83.1 ± 27.7, the “concentration of iron ion (ICP-MS)” value ([4]; Tumor) was 44.4 ± 3.9 and the “Fold increase of iron ion vs saline” value ([4]; Tumor, 1 mg/kg) was ≥ 3.3. For the same molecule, the “Fold increase of iron ion vs saline” value ([4]; Tumor, listed as Fe-Sucrose, 1 mg/kg) was 3.29, the “growth of cancer upon thermal treatment using electromagnetic waves (bioluminescence imaging)” value [3] was “significantly reduced” and the “changes in the temperature before and after the application of electromagnetic waves” value ([5]; normal tissue) was 1 °C. For the same molecule, the “changes in the temperature before and after the application of electromagnetic waves” value ([5]; tumorous tissue) was 1.9 °C.
